# Laboratory results from patent US20140148484A1, “PYRAZOLE COMPOUNDS FOR TREATING HAIRLOSS” (Boehringer Ingelheim International GmbH, priority 2012, published 2014).
# What was measured:
# [1] = target: T1, human CRTH2 receptor (Homo sapiens, UniProt Q9Y5Y4); assay: Human CRTH2 receptor membrane radioligand binding assay (SPA, [3H]-PGD2); details: displacement of [3H]-PGD2 (1 nM) from CHO-K1-hCRTH2 cell membranes, 3 h room temperature
# T1 construct: host or cells: CHO-K1 (CHO-K1-hCRTH2 cells); membranes prepared in house from the purchased cell line
# T1 sequence (Q9Y5Y4 1-395): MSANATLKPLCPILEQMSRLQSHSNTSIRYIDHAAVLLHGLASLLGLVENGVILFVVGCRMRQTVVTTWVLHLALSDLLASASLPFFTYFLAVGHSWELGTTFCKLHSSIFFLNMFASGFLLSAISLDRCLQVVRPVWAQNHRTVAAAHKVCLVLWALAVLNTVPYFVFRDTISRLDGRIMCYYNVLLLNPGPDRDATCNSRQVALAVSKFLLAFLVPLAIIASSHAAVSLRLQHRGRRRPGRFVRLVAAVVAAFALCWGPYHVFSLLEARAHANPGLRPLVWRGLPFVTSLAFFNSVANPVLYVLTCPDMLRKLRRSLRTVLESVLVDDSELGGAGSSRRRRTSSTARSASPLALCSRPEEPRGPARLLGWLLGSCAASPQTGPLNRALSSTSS
# Summary of the method: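 SPA binding using membranes from CHO-K1 cells expressing human CRTH2 (0.5–10 μg protein/well) with 1 nM [3H]-PGD2 in Tris pH 7.4 buffer with 0.1% BSA, 3 h at room temperature. Non-specific binding defined with 1 μM PGD2 or 10 μM CAY10471; inhibition calculated from specific binding.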
# [2] = tested on: explanted human hair follicles; details: administration to explanted human hair follicles; cited from earlier work
# [3] = tested on: hair growth in mice; details: applied topically to the skin of wild-type mice; cited from earlier work
SMILES,Ki [1] [µM],other results
CCc1nn(Cc2ccc(/C=C/c3ccc(Cl)cc3)cc2)c(CC)c1CC(=O)O [Example 12.3],0.0123,–
Cc1nn(Cc2ccc(OCc3ccc(Cl)c(Cl)c3)cc2)c(C)c1CC(=O)O [Example 13.1],0.03,–
Cc1nn(Cc2ccc(OCc3ccc(C(F)(F)F)cc3)cc2)c(C)c1CC(=O)O [Example 13.2],1.07,–
Cc1cc(Cl)ccc1COc1ccc(Cn2nc(C)c(CC(=O)O)c2C)cc1 [Example 13.3],0.619,–
Cc1nn(Cc2ccc(OCc3ccccc3)cc2)c(C)c1CC(=O)O [Example 13.4],0.325,–
Cc1nn(Cc2ccc(OCc3ccc(Cl)c(C(F)(F)F)c3)cc2)c(C)c1CC(=O)O [Example 13.5],0.036,–
COc1ccc(COc2ccc(Cn3nc(C)c(CC(=O)O)c3C)cc2)cc1C(F)(F)F [Example 13.6],0.0289,–
CCc1nn(Cc2ccc(OCc3cc(Cl)cc(Cl)c3)cc2)c(CC)c1CC(=O)O [Example 13.8],0.0155,–
CCc1nn(Cc2ccc(OCc3cccc(Cl)c3)cc2)c(CC)c1CC(=O)O [Example 13.9],0.0391,–
CCc1nn(Cc2ccc(OCc3cccc(C(F)(F)F)c3)cc2)c(CC)c1CC(=O)O [Example 13.10],0.0196,–
CCc1nn(Cc2ccc(OCc3ccc(OC(F)(F)F)c(Cl)c3)cc2)c(CC)c1CC(=O)O [Example 13.11],0.0488,–
CCc1nn(Cc2ccc(OCc3ccc(OC)c(C(F)(F)F)c3)cc2)c(CC)c1CC(=O)O [Example 13.12],0.005,–
CCc1nn(Cc2ccc(OCc3cccc(C)c3)cc2)c(CC)c1CC(=O)O [Example 13.13],0.0499,–
"CCCCC[C@H](O)/C=C/[C@H]1C(=O)C[C@H](O)[C@@H]1C/C=C\CCCC(=O)O [PGD2, prostaglandin D2]",–,hair growth [2]: inhibited hair growth; hair growth [3]: inhibited hair growth

# The next lines start with results.
Ki [1] [µM],SMILES,other results
1.53,Cc1nn(Cc2ccc(COc3ccc(C(F)(F)F)cc3)cc2)c(C)c1CC(=O)O [Example 14.1],–
0.043,Cc1nn(Cc2ccc(COc3ccc(Cl)c(Cl)c3)cc2)c(C)c1CC(=O)O [Example 14.2],–
0.742,Cc1nn(Cc2ccc(COc3ccccc3)cc2)c(C)c1CC(=O)O [Example 14.3],–
0.029,Cc1nn(Cc2ccc(C(C)Oc3ccc(Cl)c(Cl)c3)cc2)c(C)c1CC(=O)O (stereo not drawn) [Example 14.4],–
0.253,Cc1nn(Cc2ccc(C(C)Oc3ccc(C(F)(F)F)cc3)cc2)c(C)c1CC(=O)O (stereo not drawn) [Example 14.5],–
0.428,Cc1nn(Cc2ccc(C(C)Oc3ccccc3)cc2)c(C)c1CC(=O)O (stereo not drawn) [Example 14.6],–
0.785,Cc1nn(Cc2ccc(C(O)Cc3ccccc3)cc2)c(C)c1CC(=O)O (stereo not drawn) [Example 15.1],–
0.552,Cc1nn(Cc2ccc(C(=O)Cc3ccccc3)cc2)c(C)c1CC(=O)O [Example 15.2],–
0.992,Cc1nn(Cc2ccc(CSc3ccc(C(F)(F)F)cc3)cc2)c(C)c1CC(=O)O [Example 16.1],–
0.324,Cc1nn(Cc2ccc(C[S+]([O-])c3ccc(C(F)(F)F)cc3)cc2)c(C)c1CC(=O)O (stereo not drawn) [Example 16.2],–
2.29,Cc1nn(Cc2ccc(CS(=O)(=O)c3ccc(C(F)(F)F)cc3)cc2)c(C)c1CC(=O)O [Example 16.3],–
0.875,Cc1nn(Cc2ccc(CSc3ccc(Cl)c(Cl)c3)cc2)c(C)c1CC(=O)O [Example 16.4],–
0.325,Cc1nn(Cc2ccc(C[S+]([O-])c3ccc(Cl)c(Cl)c3)cc2)c(C)c1CC(=O)O (stereo not drawn) [Example 16.5],–
0.853,Cc1nn(Cc2ccc(CS(=O)(=O)c3ccc(Cl)c(Cl)c3)cc2)c(C)c1CC(=O)O [Example 16.6],–
0.0001,CCc1nn(C(C)c2ccc(NC(=O)c3ccc(C(F)(F)F)cc3)cc2)c(CC)c1CC(=O)O (stereo not drawn) [Example 17.1],–
0.0043,CCc1nn(C(C)c2ccc(C(=O)Nc3ccc(C(F)(F)F)cc3)cc2)c(CC)c1CC(=O)O (stereo not drawn) [Example 17.2],–
0.0016,Cc1nn(Cc2ccc(NC(=O)c3ccc(Cl)c(Cl)c3)cn2)c(C)c1CC(=O)O [Example 18.1],–
0.0435,Cc1nn(Cc2ccc([S+]([O-])Cc3ccc4ccccc4c3)cc2)c(C)c1CC(=O)O (stereo not drawn) [Example 19.1],–
0.012,Cc1nn(Cc2ccc([S+]([O-])Cc3ccc(Cl)c(Cl)c3)cc2)c(C)c1CC(=O)O (stereo not drawn) [Example 19.2],–
0.0122,CCc1nn(Cc2ccc([S+]([O-])Cc3ccc(Cl)c(Cl)c3)cc2)c(CC)c1CC(=O)O (stereo not drawn) [Example 19.3],–
0.0488,CCc1nn(Cc2ccc([S+]([O-])Cc3ccccc3)cc2)c(CC)c1CC(=O)O (stereo not drawn) [Example 19.4],–
